Earlier results on one molecule are cited in patent EP3231454B1, “BONE CEMENT COMPRISING MICROENCAPSULATED ANTIMICROBIAL” (UNIVERSIDAD PONTIFICIA COMILLAS, priority 2016, dated 2017).

For the data set the following is noted: addition of 1 g of vancomycin to bone cement.

On to `CN[C@H](CC(C)C)C(=O)N[C@H]1C(=O)N[C@@H](CC(N)=O)C(=O)N[C@H]2C(=O)N[C@H]3C(=O)N[C@H](C(=O)N[C@H](C(=O)O)c4cc(O)cc(O)c4-c4cc3ccc4O)[C@H](O)c3ccc(c(Cl)c3)Oc3cc2cc(c3O[C@@H]2O[C@H](CO)[C@@H](O)[C@H](O)[C@H]2O[C@H]2C[C@](C)(N)[C@H](O)[C@H](C)O2)Oc2ccc(cc2Cl)[C@H]1O` [vancomycin], for which the “reduction in bending resistance” value is on record as “more than 20%”.
